According to ChEMBL document CHEMBL1201862, “PubChem BioAssay data set” (2004):
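Briefly, cells in 96-well plates were exposed to five compound concentrations for 48 h, and endpoints were estimated by linear interpolation. GI50 is the concentration that inhibits growth by half.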 The source made the active and inactive calls. Rule as the data show it: active = GI50 up to about 1.1 µM and inactive = higher. Square brackets hold non-standard residues; d marks the D form. Peptide text beside a SMILES is read from it. * marks the point of attachment. ξ: configuration not given here. Propanoyl(3-(4-MeO-Ph)) = COc1ccc(CCC(=O)*)cc1; Thr(3ξ) = CC(O)[C@H](N)C(=O)O; dNMeL = CN[C@H](CC(C)C)C(=O)O; ξLac = CC(O)C(=O)O

Assays:
Experiment in all cases: NCI anticancer screen, dose series, 48 h
PC-3 = test system: PC-3
SF-539 = test system: SF-539
OVCAR-3 = test system: OVCAR-3
786-0 = test system: 786-0
HCT-116 = test system: HCT-116
UACC-257 = test system: UACC-257
RPMI-8226 = test system: RPMI-8226
HOP-92 = test system: HOP-92
ACHN = test system: ACHN
COLO 205 = test system: COLO 205
OVCAR-5 = test system: OVCAR-5
SK-MEL-2 = test system: SK-MEL-2
MOLT-4 = test system: MOLT-4
UACC-62 = test system: UACC-62
HT-29 = test system: HT-29
NCI-H460 = test system: NCI-H460
T47D = test system: T47D
SK-OV-3 = test system: SK-OV-3
SN12C = test system: SN12C
MDA-N = test system: MDA-N

| SMILES | GI50 (PC-3) | GI50 (SF-539) | GI50 (OVCAR-3) | GI50 (786-0) | GI50 (HCT-116) | GI50 (UACC-257) | GI50 (RPMI-8226) | GI50 (HOP-92) | GI50 (ACHN) | GI50 (COLO 205) | GI50 (OVCAR-5) | GI50 (SK-MEL-2) | GI50 (MOLT-4) | GI50 (UACC-62) | GI50 (HT-29) | GI50 (NCI-H460) | GI50 (T47D) | GI50 (SK-OV-3) | GI50 (SN12C) | GI50 (MDA-N) |
| --- | --- | --- | --- | --- | --- | --- | --- | --- | --- | --- | --- | --- | --- | --- | --- | --- | --- | --- | --- | --- |
| O=C(NC(=O)c1ccccc1[N+](=O)[O-])Nc1ccc(Oc2ncc(Cl)cn2)c([N+](=O)[O-])c1 | 0.196 µM (active) | 0.233 µM (active) | 0.0644 µM (active) | 0.225 µM (active) | 0.175 µM (active) | 0.431 µM (active) | 0.187 µM (active) | 0.27 µM (active) | 0.641 µM (active) | 0.34 µM (active) | 0.875 µM (active) | 0.127 µM (active) | 0.171 µM (active) | 0.0834 µM (active) | 0.147 µM (active) | 0.198 µM (active) | 0.414 µM (active) | 0.146 µM (active) | 0.7 µM (active) | 0.0227 µM (active) |
| Cc1cc(C)cc(C(=N)c2ccccc2Cc2cccc3ccccc23)c1 | 45.8 µM (inactive) | 16.1 µM (inactive) | 18.7 µM (inactive) | 15.2 µM (inactive) | 10.1 µM (inactive) | 22.2 µM (inactive) | 20.3 µM (inactive) | 13.3 µM (inactive) | 16.6 µM (inactive) | 21.3 µM (inactive) | 16.6 µM (inactive) | 37.8 µM (inactive) | 9.64 µM (inactive) | 13.9 µM (inactive) | 9.66 µM (inactive) | 13.5 µM (inactive) | 16.3 µM (inactive) | 17.5 µM (inactive) | 17.7 µM (inactive) | 21.1 µM (inactive) |
| Nc1nc(Cl)cc(NCC2(O)CCC2)n1 | > 100 µM (inactive) | > 100 µM (inactive) | > 100 µM (inactive) | > 100 µM (inactive) | > 100 µM (inactive) | > 100 µM (inactive) | > 100 µM (inactive) | > 100 µM (inactive) | > 100 µM (inactive) | > 100 µM (inactive) | > 100 µM (inactive) | > 100 µM (inactive) | > 100 µM (inactive) | > 100 µM (inactive) | > 100 µM (inactive) | > 100 µM (inactive) | > 100 µM (inactive) | > 100 µM (inactive) | > 100 µM (inactive) | > 100 µM (inactive) |
| COc1ccc(\N=C/C=C/C(=C/COC(C)=O)OC(C)=O)cc1 | 36.4 µM (inactive) | 35.9 µM (inactive) | 20.7 µM (inactive) | 23 µM (inactive) | 5.53 µM (inactive) | 27.4 µM (inactive) | 5.48 µM (inactive) | 20.5 µM (inactive) | 17.3 µM (inactive) | 25.4 µM (inactive) | 40.5 µM (inactive) | 16.7 µM (inactive) | 68.1 µM (inactive) | 37.1 µM (inactive) | 23.2 µM (inactive) | 34.5 µM (inactive) | 72.9 µM (inactive) | 91.2 µM (inactive) | 32.7 µM (inactive) | 9.38 µM (inactive) |
| c1cc(NC2=NCCO2)c2c(c1)OCO2 | > 100 µM (inactive) | > 100 µM (inactive) | > 100 µM (inactive) | > 100 µM (inactive) | > 100 µM (inactive) | > 100 µM (inactive) | > 100 µM (inactive) | > 100 µM (inactive) | > 100 µM (inactive) | > 100 µM (inactive) | > 100 µM (inactive) | > 100 µM (inactive) | > 100 µM (inactive) | > 100 µM (inactive) | > 100 µM (inactive) | > 100 µM (inactive) | > 100 µM (inactive) | > 100 µM (inactive) | > 100 µM (inactive) | > 100 µM (inactive) |
| CN(C)CCCNCc1cccc2ccccc12 | > 100 µM (inactive) | > 100 µM (inactive) | > 100 µM (inactive) | > 100 µM (inactive) | > 100 µM (inactive) | > 100 µM (inactive) | > 100 µM (inactive) | 78.3 µM (inactive) | > 100 µM (inactive) | > 100 µM (inactive) | > 100 µM (inactive) | > 100 µM (inactive) | > 100 µM (inactive) | > 100 µM (inactive) | > 100 µM (inactive) | > 100 µM (inactive) | > 100 µM (inactive) | > 100 µM (inactive) | > 100 µM (inactive) | > 100 µM (inactive) |
| CC(C)(CN)CN | > 100 µM (inactive) | > 100 µM (inactive) | > 100 µM (inactive) | > 100 µM (inactive) | > 100 µM (inactive) | > 100 µM (inactive) | > 100 µM (inactive) | > 100 µM (inactive) | > 100 µM (inactive) | > 100 µM (inactive) | > 100 µM (inactive) | > 100 µM (inactive) | > 100 µM (inactive) | > 100 µM (inactive) | > 100 µM (inactive) | > 100 µM (inactive) | > 100 µM (inactive) | > 100 µM (inactive) | > 100 µM (inactive) | > 100 µM (inactive) |
| COC(=O)[C@@H](NC(=O)[C@@H](CC(C)C)N(C)C(=O)[C@@H]1CCCN1C(=O)C(C)O)C(C)OC(=O)CCc1ccc(OC)cc1 (stereo not given in full) (H-[ξLac]P[dNMeL][Thr(3ξ)](Propanoyl(3-(4-MeO-Ph)))-OMe) | > 100 µM (inactive) | > 100 µM (inactive) | > 100 µM (inactive) | > 100 µM (inactive) | > 100 µM (inactive) | > 100 µM (inactive) | > 100 µM (inactive) | > 100 µM (inactive) | > 100 µM (inactive) | > 100 µM (inactive) | > 100 µM (inactive) | > 100 µM (inactive) | 60.5 µM (inactive) | > 100 µM (inactive) | > 100 µM (inactive) | > 100 µM (inactive) | > 100 µM (inactive) | > 100 µM (inactive) | > 100 µM (inactive) | > 100 µM (inactive) |
